The text below walks through data of patent US10077287B2, “Tubulysin analogs and methods of making and use” (priority 2014, dated 2018).

For one test, the system named is H226 (human lung cancer). In words: Inhibition of cell proliferation (ATP luminescence or MTS assay), H226. The settings on record: NCI-H226, 72 h, read-out: Cancer Cell Line: EC50 (nM) H226. The test is classed as cell-based. How it is done: (§1) The cancer cells lines tested against were: H226 (human lung cancer); N87 (human gastric cancer), OVCAR3 (human ovarian cancer), HCT116 (human colon cancer), HCT116NM46 (HCT116 subline with multi-drug resistance, including to paclitaxel), and ACR (human breast cancer, multi-drug resistant). Table II also includes comparative data against reference compounds (A)-(G) not according to this invention:
(§2) The ability of test compounds to inhibit cell proliferation was measured by either an ATP luminescence assay or an MTS cell proliferation assay. […] In some instances, both methods were used.
(§3) This is a general procedure for an ATP luminescence assay: Cells are seeded at 1×10^3 cells/well in 96-well plates for 3 h for ATP CellTiterGlo™ assays, respectively. Serial dilutions (1:3) of compounds are added to the wells. Plates are allowed to incubate for 72 h. A CellTiterGlo™ cell viability kit from Promega is used to measure ATP content of cells treated with test compounds following manufacturer's instruction. A decrease in the ATP content is a measure of decrease in cellular viability. The EC50 value—the concentration at which an agent reduces cell viability by 50% of the maximum effect—is determined using PRISM™ software, version 5.0 (GraphPad Software, La Jolla, Calif., USA).
(§4) The following is a description of the MTS cell proliferation assay: CellTiter 96 Aqueous Non-Radioactive Cell proliferation Kit from Promega (Madison, Wis.) is used to determine the number of viable cells in cell proliferation assay. Tumor cells are plated at certain seeding densities in sterile 384-well black clear bottom Matrix plates at 40 μL per well and incubated overnight at 37° C. in 5% CO2 before assaying. On the next day, one set of cell plates (T0 plates) is used to determine time zero cell density, and 3-(4,5-dimethylthiazol-2-yl)-5-(3-carboxymethoxyphenyl)-2-(4-sulfophenyl)-2H-tetrazolium is added at 4 μL/well into T0 plates followed by incubation at 37° C. in 5% CO2 for three hours. This tetrazolium reagent is bioreduced by […] to form a formazan product which is soluble in aqueous solution. Absorbance at 490 nm is measured on an Envision reader (Perkin Elmer, Boston, Mass.). On the same day, compounds are added into remaining cell plates (T72 plates) and incubated at 37° C. in 5% CO2. After 72 hours, 4 μL MTS reagents are then added into those cell plates. The plates are further incubated at 37° C. in 5% CO2 for three hours and the absorbance values at A490 were measured on an Envision reader.
Background: Tetrazolium dyes change colour on reduction, which living cells bring about.

Test [1] deals with ADR (human breast cancer, multi-drug resistant). In words: Inhibition of cell proliferation (ATP luminescence or MTS assay), ADR. The test is classed as cell-based. The settings on record: 72 h, read-out: Cancer Cell Line: EC50 (nM) ADR. Here is the method: as §1, §2
This is a general procedure for an ATP luminescence assay: Cells are seeded at 1×10^3 cells/well in 96-well plates for 3 h for ATP CellTiterGlo™ assays, respectively. Serial dilutions (1:3) of compounds are added to the wells. Plates are allowed to incubate for 72 h. […]
The following is a description of the MTS cell proliferation assay: CellTiter 96 Aqueous Non-Radioactive Cell proliferation Kit from Promega (Madison, Wis.) is used to determine the number of viable cells in cell proliferation assay. […] Absorbance at 490 nm is measured on an Envision reader (Perkin Elmer, Boston, Mass.). […] The plates are further incubated at 37° C. in 5% CO2 for three hours and the absorbance values at A490 were measured on an Envision reader.

The test system of test [2] is N87 (human gastric cancer). The test can be described thus: Inhibition of cell proliferation (ATP luminescence or MTS assay), N87. The test is classed as cell-based. The conditions noted are these: 72 h, read-out: Cancer Cell Line: EC50 (nM) N87. How it is done:
as §1, §2, §3, §4

For test [3], the system named is OVCAR3 (human ovarian cancer). In words: Inhibition of cell proliferation (ATP luminescence or MTS assay), OVCAR3. The settings on record: OVCAR-3, 72 h, read-out: Cancer Cell Line: EC50 (nM) OVCAR3. The test is classed as cell-based. Here is the method:
as §1, §2, §3, §4

For test [4], the system named is HCT116 (human colon cancer). The test can be described thus: Inhibition of cell proliferation (ATP luminescence or MTS assay), HCT116. The test is classed as cell-based. The settings on record: HCT-116, 72 h, read-out: Cancer Cell Line: EC50 (nM) HCT116. Here is the method: as §1, §2, §3, §4
For test [5], the system named is HCT116/VM46 (HCT116 subline with multi-drug resistance, including to paclitaxel). In words: Inhibition of cell proliferation (ATP luminescence or MTS assay), HCT116/VM46. The test is classed as cell-based. The settings on record: Homo sapiens, HCT-116/VM46, multi-drug resistant HCT116 subline, 72 h, read-out: Cancer Cell Line: EC50 (nM) HCT116/VM46. How it is done:
as §1, §2, §3, §4

For test [6], the system named is cancer cells. The settings on record: Kaur et al. 2006; cited from earlier work.
For test [7], the system named is various cancer cell lines. The settings on record: Kaur et al. 2006; cited from earlier work.
The test system of test [8] is cancer cells. The conditions noted are these: cancer cells versus normal cells; Kaur et al. 2006; cited from earlier work.
The conditions of test [9]: in vitro assays; Kaur et al. 2006; cited from earlier work.

Consider `CCCN(C(=O)[C@@H](NC(=O)[C@H]1CCCCN1C)[C@@H](C)CC)[C@H](C[C@@H](OC(=O)NC)c1nc(C(=O)N[C@H](CCC(=O)O)Cc2ccc(N)cc2)cs1)C(C)C` [(E), reference compound], for which the EC50 in the test on H226 (human lung cancer) was found to be 28 nM; in [1], 189 nM.

Take `CCCN(C(=O)[C@@H](NC(=O)[C@H]1CCCCN1C)[C@@H](C)CC)[C@H](C[C@@H](OC(C)=O)c1nc(C(=O)N[C@@H](Cc2ccc(N)cc2)CC(C)(C)C(=O)O)cs1)C(C)C` [(Ia-1)]: the EC50 with H226 (human lung cancer) was 0.089 nM; in test [2], 0.03 to 0.2 nM; in test [3], 0.016 to 0.04 nM.

Regarding `CCCN(C(=O)[C@@H](NC(=O)[C@H]1CCCCN1C)[C@@H](C)CC)[C@H](C[C@@H](OC(=O)NC)c1nc(C(=O)N[C@@H](Cc2ccc(N)cc2)CC(C)(C)C(=O)O)cs1)C(C)C` [(Ia-2), (S)-5-(4-aminophenyl)-4-(2-((5R,7R,10S)-10-((S)-sec-butyl)-7-isopropyl-12-((R)-1-methylpiperidin-2-yl)-3,9,12-trioxo-8-propyl-4-oxa-2,8,11-triazadodecan-5-yl)thiazole-4-carboxamido)-2,2-dimethylpentanoic acid], the EC50 in the test with H226 (human lung cancer) is 0.33 to 1.1 nM; in [2], 0.65 to 1 nM; in test [3], 0.07 to 0.1 nM; in [4] it was 0.58 nM; in [5], 1.22 nM; in test [1] it was 9.5 nM.

Turning to `CCCN(C(=O)[C@@H](NC(=O)[C@H]1CCCCN1C)C(C)C)[C@H](C[C@@H](OC(C)=O)c1nc(C(=O)N[C@@H](Cc2ccc(N)cc2)CC(C)(C)C(=O)O)cs1)C(C)C` [(Ia-3)], the EC50 with H226 (human lung cancer) was 0.086 nM; in [2], 0.16 nM; in [3], 0.019 nM; in [4], 0.13 nM; in test [5], 0.19 nM.

Take `CCCN(C(=O)[C@@H](NC(=O)[C@H]1CCCCN1C)[C@@H](C)CC)[C@H](C[C@@H](OC(=O)NC)c1nc(C(=O)N[C@@H](Cc2ccc(N)cc2)CC2(C(=O)O)CC2)cs1)C(C)C` [(Ib-1), 1-((S)-3-(4-aminophenyl)-2-(2-((5R,7R,10S)-10-((S)-sec-butyl)-7-isopropyl-12-((R)-1-methylpiperidin-2-yl)-3,9,12-trioxo-8-propyl-4-oxa-2,8,11-triazadodecan-5-yl)thiazole-4-carboxamido)propyl)cyclopropanecarboxylic acid]: the EC50 came out at 0.63 nM with H226 (human lung cancer), 1.7 nM in test [2] and 0.07 nM in test [3].

As to `CCCN(C(=O)[C@@H](NC(=O)[C@H]1CCCCN1C)[C@@H](C)CC)[C@H](C[C@@H](OC(=O)NC)c1nc(C(=O)N[C@@H](Cc2ccc(N)cc2)CC2(C(=O)OC)CC2)cs1)C(C)C` [(Ib-2), methyl 1-((S)-3-(4-aminophenyl)-2-(2-((5R,7R,10S)-10-((S)-sec-butyl)-7-isopropyl-12-((R)-1-methylpiperidin-2-yl)-3,9,12-trioxo-8-propyl-4-oxa-2,8,11-triazadodecan-5-yl)thiazole-4-carboxamido)propyl)cyclopropanecarboxylate], the values for the EC50 (with H226 (human lung cancer); in test [2]; in [3]) were 0.4 nM, 4.4 nM and 0.15 nM, respectively.

Consider `CCCN(C(=O)[C@@H](NC(=O)[C@H](NC)C(C)C)[C@@H](C)CC)[C@H](C[C@@H](OC(C)=O)c1nc(C(=O)N[C@@H](Cc2ccccc2)CC(C)(C)C(=O)O)cs1)C(C)C` [(Ic-1), (S)-4-(2-((3R,6S,9R,11R)-6-((S)-sec-butyl)-3,9-diisopropyl-4,7,13-trioxo-8-propyl-12-oxa-2,5,8-triazatetradecan-11-yl)thiazole-4-carboxamido)-2,2-dimethyl-5-phenylpentanoic acid], for which the EC50 in the test on H226 (human lung cancer) was determined as 0.038 nM; in test [2], 0.2 nM; in test [3] it was 0.012 nM; in test [4], 0.064 nM; in test [5], 0.51 nM.

As for `CCCN(C(=O)[C@@H](NC(=O)[C@H](NC)C(C)C)[C@@H](C)CC)[C@H](C[C@@H](OC(=O)NC)c1nc(C(=O)N[C@@H](Cc2ccccc2)CC(C)(C)C(=O)O)cs1)C(C)C` [(Ic-2)], the EC50 in the test with H226 (human lung cancer) was found to be 0.31 nM; in [2], 0.37 nM; in [3] it was 0.04 nM; in test [4], 0.26 nM; in test [5], 7.5 nM.

With `CC[C@H](C)[C@H](NC(=O)[C@H]1CCCCN1C)C(=O)N(COC(=O)CC(C)C)[C@H](C[C@@H](OC(C)=O)c1nc(C(=O)N[C@@H](Cc2ccc(O)cc2)C[C@H](C)C(=O)O)cs1)C(C)C` [tubulysin A], the “antiproliferative potency compared with paclitaxel and vinblastine” value in the test with cancer cells [6] was “more potent than paclitaxel and vinblastine”. Further, in test [7], the “activity in xenograft assays” value was “active in xenograft assays”. Besides, in the test with cancer cells [8], the induction of apoptosis entry is reported as “induced apoptosis in cancer cells but not in normal cells”. Moreover, the antiangiogenic properties entry in test [9] is “significant potential antiangiogenic properties”.
